Test results as given in the NIST ThermoML archive (doi:10.1021/je2010038).

Experiment: xn = mol fraction of the nth substance listed
Conditions: for mass density: Liquid, Vibrating tube method; for surface tension liquid-gas: Pendant drop shape

NCCO [2-aminoethan-1-ol] + O
mass density [kg/m3]
Conditions | x1 = 0.1122 | x1 = 0.1643 | x1 = 0.2278 | x1 = 0.3067 | x1 = 0.4077 | x1 = 0.5412 | x1 = 0.7264 | x1 = 1
298.15 K, 101 kPa | 1010.9 | 1016.3 | 1021.3 | 1024.8 | 1026.3 | 1024.7 | 1020 | 1011.9
303.15 K, 101 kPa | 1008.4 | 1013.8 | 1018.2 | 1021.4 | 1022.8 | 1021 | 1016.2 | 1008
308.15 K, 101 kPa | 1006.2 | 1011 | 1015.2 | 1018.2 | 1019.3 | 1017.3 | 1012.3 | 1004
313.15 K, 101 kPa | 1003.5 | 1008.3 | 1012.1 | 1014.7 | 1015.7 | 1013.5 | 1008.5 | 1000
318.15 K, 101 kPa | 1001.1 | 1005.3 | 1009 | 1011.4 | 1012 | 1009.7 | 1004.5 | 996
323.15 K, 101 kPa | 998.1 | 1002.3 | 1005.6 | 1007.8 | 1008.3 | 1005.9 | 1000.6 | 992
328.15 K, 101 kPa | 995.5 | 999.2 | 1002.4 | 1004.4 | 1004.6 | 1002 | 996.7 | 988
333.15 K, 101 kPa | 992.3 | 996.1 | 999 | 1000.7 | 1000.8 | 998.2 | 992.7 | 983.9
338.15 K, 101 kPa | 989.5 | 992.7 | 995.4 | 997.1 | 997 | 994.2 | 988.7 | 979.8
343.15 K, 101 kPa | 986.1 | 989.4 | 991.9 | 993.2 | 993.1 | 990.2 | 984.6 | 975.8
348.15 K, 101 kPa | 983 | 985.9 | 988.3 | 989.5 | 989.2 | 986.2 | 980.6 | 971.6
353.15 K, 101 kPa | 979.4 | 982.4 | 984.5 | 985.6 | 985.2 | 982.1 | 976.5 | 967.5
358.15 K, 101 kPa | 976.1 | 978.7 | 980.8 | 981.8 | 981.2 | 978 | 972.3 | 963.4
363.15 K, 101 kPa | 972.5 | 975 | 976.9 | 977.7 | 977.1 | 973.9 | 968.1 | 959.2
373.1 K, 700 kPa | 965.3 | 967.2 | 969 | 969.4 | 968.5 | 965.3 | 959.3 | 950.9
383.15 K, 700 kPa | 957.4 | 959.1 | 960.6 | 960.8 | 959.8 | 956.5 | 950.6 | 942.3
393.15 K, 700 kPa | 949.1 | 950.7 | 952 | 952.1 | 950.9 | 947.6 | 941.7 | 933.5
403.15 K, 700 kPa | 940.6 | 941.9 | 943.1 | 943.1 | 941.9 | 938.6 | 932.7 | 924.7
413.15 K, 700 kPa | 931.7 | 932.9 | 934 | 933.8 | 932.6 | 929.3 | 923.6 | 915.7
423.15 K, 700 kPa | 922.3 | 923.3 | 924.3 | 924.1 | 922.8 | 919.5 | 914.1 | 906.4

surface tension liquid-gas [mN/m]
Conditions | x1 = 0.032 | x1 = 0.069 | x1 = 0.112 | x1 = 0.164 | x1 = 0.228 | x1 = 0.307 | x1 = 0.407 | x1 = 0.541 | x1 = 0.726 | x1 = 1
303.15 K | 66.75 | 64.74 | 63.58 | 61.74 | 59.27 | 57.42 | 55.78 | 53.43 | 50.59 | 48.13
313.15 K | 65.51 | 63.29 | 62.55 | 60.27 | 58.19 | 56.35 | 54.82 | 52.41 | 49.63 | 46.66
323.15 K | 64.31 | 61.72 | 61.16 | 58.82 | 56.85 | 55.15 | 53.4 | 51.14 | 48.42 | 45.58
333.15 K | 62.46 | 60.07 | 59.39 | 57.29 | 55.39 | 53.61 | 51.77 | 49.62 | 47 | 44.63
